Laboratory results reported in patent publication US20250049798A1, “WEE1 PROTEIN KINASE DEGRADATION AGENT AND USE THEREOF” (HANGZHOU GLUBIO PHARMACEUTICAL CO. LTD., priority 2021, published 2025).

Biological target: HiBiT tagged Wee1 (Homo sapiens, UniProt P30291)
Assay: Wee1 protein degradation assay (HiBiT assay)
Format: cell-based
Conditions: engineered HT-1080 cells, 20 hours; for Dmax: maximum percentage of Wee1 degradation, read-out: HiBiT Wee1: Dmax

HiBiT tagged Wee1, sequence (P30291 whole entry): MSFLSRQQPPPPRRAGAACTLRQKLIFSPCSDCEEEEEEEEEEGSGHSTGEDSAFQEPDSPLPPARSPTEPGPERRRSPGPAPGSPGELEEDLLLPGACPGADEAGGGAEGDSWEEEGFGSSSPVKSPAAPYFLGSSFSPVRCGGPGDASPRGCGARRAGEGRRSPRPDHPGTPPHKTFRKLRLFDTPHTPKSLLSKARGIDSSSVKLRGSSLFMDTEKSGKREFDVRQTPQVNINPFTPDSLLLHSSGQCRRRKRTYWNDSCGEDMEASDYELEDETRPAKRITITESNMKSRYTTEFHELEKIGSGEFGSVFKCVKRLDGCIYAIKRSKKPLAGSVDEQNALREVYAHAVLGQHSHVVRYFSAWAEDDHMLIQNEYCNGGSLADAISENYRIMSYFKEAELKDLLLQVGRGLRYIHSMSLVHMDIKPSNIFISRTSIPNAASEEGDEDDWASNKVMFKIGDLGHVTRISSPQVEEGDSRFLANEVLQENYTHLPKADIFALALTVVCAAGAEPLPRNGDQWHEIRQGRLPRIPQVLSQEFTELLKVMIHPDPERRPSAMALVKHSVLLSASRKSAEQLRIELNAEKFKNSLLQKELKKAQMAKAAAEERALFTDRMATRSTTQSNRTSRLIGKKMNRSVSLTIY

DC50 | Dmax | Compound
< 0.1 µM | > 75% | C=CCn1c(=O)c2cnc(Nc3ccc(N4CCC(CN5CCN(c6ccc7c(N8CCC(=O)NC8=O)nn(C)c7c6)CC5)CC4)cc3)nc2n1-c1ccc2c(n1)[C@](C)(O)CC2 [Compound 127]
< 0.1 µM | > 75% | C=CCn1c(=O)c2cnc(Nc3ccc(N4CCC(CN5CCN(c6ccc(NC7CCC(=O)NC7=O)cc6Cl)CC5)CC4)cc3)nc2n1-c1cccc(C(C)(C)O)n1 (stereo not shown) [Compound 147]
< 0.1 µM | 50 to 75% | C=CCn1c(=O)c2cnc(Nc3ccc(N4CCC(N5CC6(CN(c7ccc8c(N9CCC(=O)NC9=O)nn(C)c8c7)C6)C5)C(F)(F)C4)cc3)nc2n1-c1ccc2c(n1)[C@@](O)(CC)CC2 (stereo partly shown) [Compound 178]
< 0.1 µM | > 75% | C=CCn1c(=O)c2cnc(Nc3ccc(N4CCC(CN5CCN(c6ccc(NC7CCC(=O)NC7=O)cc6F)CC5)CC4)c(C)c3)nc2n1-c1ccc2c(n1)[C@@](C)(O)CC2 (stereo partly shown) [Compound 133]
< 0.1 µM | > 75% | C=CCn1c(=O)c2cnc(Nc3ccc(C4CCN(CC5CCN(c6ccc(NC7CCC(=O)NC7=O)cc6C(F)(F)F)CC5)CC4)cc3)nc2n1-c1cccc(C(C)(C)O)n1 (stereo not shown) [Compound 107]
0.1 to 1 µM | 50 to 75% | C=CCn1c(=O)c2cnc(Nc3ccc(N4CCC(CN5CCC(c6cccc(NC7CCC(=O)NC7=O)c6)CC5)CC4)cc3)nc2n1-c1cccc(C(C)(C)O)n1 (stereo not shown) [Compound 145]
< 0.1 µM | 50 to 75% | C=CCn1c(=O)c2cnc(Nc3ccc(N4CCN(C(=O)CC5(O)CCN(c6ccc(NC7CCC(=O)NC7=O)cc6F)CC5)CC4)cc3)nc2n1-c1ccc2c(n1)[C@@](O)(CC)CC2 (stereo partly shown) [Compound 159]
< 0.1 µM | 50 to 75% | C=CCn1c(=O)c2cnc(Nc3ccc(N4CCC(N5CCN(c6cccc7c6n(C)c(=O)n7C6CCC(=O)NC6=O)CC5)CC4)cc3)nc2n1-c1cccc(C(C)(C)O)n1 (stereo not shown) [Compound 68]
< 0.1 µM | > 75% | C=CCn1c(=O)c2cnc(Nc3ccc(N4CCN(CC5CCN(c6ccc(NC7CCC(=O)NC7=O)cc6F)CC5)CC4)cc3)nc2n1-c1cccc(C(C)(C)O)n1 (stereo not shown) [Compound 102-A]

Second part, the compound before the results:

Compound | DC50 | Dmax
C=CCn1c(=O)c2cnc(Nc3ccc(C4CCN(CC5CCN(c6ccc(C(=O)NC7CCC(=O)NC7=O)nc6)CC5)CC4)cc3)nc2n1-c1cccc(C(C)(C)O)n1 (stereo not shown) [Compound 35] | > 1 µM | < 50%
C=CCn1c(=O)c2cnc(Nc3ccc(N4CCN(CCOc5ccc6c(c5)C(=O)N(C5CCC(=O)NC5=O)C6=O)CC4)cc3)nc2n1-c1cccc(C(C)(C)O)n1 (stereo not shown) [Compound 63] | < 0.1 µM | 50 to 75%
C=CCn1c(=O)c2cnc(Nc3ccc(C4CCN(C[C@H]5CCN(c6ccc7c(c6)C(=O)N(C6CCC(=O)NC6=O)C7=O)C5)CC4)cc3)nc2n1-c1cccc(C(C)(C)O)n1 (stereo partly shown) [Compound 36] | < 0.1 µM | 50 to 75%
COc1ccc(C(=O)N2CCC(CN3CCN(Cc4ccc(Nc5ncc6c(=O)n(-c7c(Cl)cccc7Cl)c7nccn7c6n5)cc4)CC3)CC2)cc1N1CCC(=O)NC1=O [Compound 58] | > 1 µM | < 50%
C=CCn1c(=O)c2cnc(Nc3ccc(C4CCN(C5CCN(c6cc7c(cc6F)C(=O)N(C6CCC(=O)NC6=O)C7=O)CC5)CC4)cc3)nc2n1-c1cccc(C(C)(C)O)n1 (stereo not shown) [Compound 44] | < 0.1 µM | 50 to 75%
COc1ccc(C(=O)N2CCC(OC3CCN(Cc4ccc(Nc5ncc6c(=O)n(-c7c(Cl)cccc7Cl)c7nccn7c6n5)cc4)CC3)CC2)cc1N1CCC(=O)NC1=O [Compound 60] | > 1 µM | < 50%
C=CCn1c(=O)c2cnc(Nc3ccc(N4CCN(CC5CCN(c6ccc7c(c6)CN(C6CCC(=O)NC6=O)C7=O)CC5)CC4)cc3)nc2n1-c1cccc(C(C)(C)O)n1 (stereo not shown) [Compound 25] | < 0.1 µM | 50 to 75%
COc1ccc(C(=O)N2CCC3(CCN(Cc4ccc(Nc5ncc6c(=O)n(-c7c(Cl)cccc7Cl)c7nccn7c6n5)cc4)CC3)CC2)cc1N1CCC(=O)NC1=O [Compound 59] | > 1 µM | < 50%
